Test systems include SK-MEL-5 melanoma; UACC-62 melanoma; LOX IMVI melanoma; SK-MEL-28 melanoma; A549 NSCLC; SK-OV-3 ovarian; SNB-75 CNS; HCT-116 colon; TK-10 renal; SN12C renal.
Common to all, as to assay: inhibition of tumour cell growth, NCI panel, 48 h

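Interpolation was linear, between the two tested concentrations surrounding the appropriate level; five concentrations were tested over 48 hours in 96-well plates. Here, GI50 denotes the concentration required for 50% inhibition of growth. The concentration for full growth arrest is given as TGI.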

Consider `COc1ccc(-c2ccc(C3CC(c4ccc(Cl)cc4)=NN3)o2)c([N+](=O)[O-])c1` (stereo not drawn), for which the GI50 in the assay on SK-MEL-5 melanoma was > 100 µM; with UACC-62 melanoma it was 78.4 µM; in the assay on LOX IMVI melanoma, > 100 µM; with SK-MEL-28 melanoma, > 100 µM; in the assay with A549 NSCLC it was > 100 µM; in the assay on SK-OV-3 ovarian, > 100 µM. For the same compound, the GI50 in the assay with SNB-75 CNS, in the assay on HCT-116 colon and with TK-10 renal was > 100 µM in each case. Moreover, the TGI in the assay on SK-MEL-5 melanoma, in the assay with UACC-62 melanoma, in the assay on LOX IMVI melanoma, with SK-MEL-28 melanoma, in the assay on A549 NSCLC and with SK-OV-3 ovarian was > 100 µM in each case. For the same compound, the TGI in the assay with SNB-75 CNS, in the assay on HCT-116 colon and in the assay on TK-10 renal was > 100 µM throughout.
As to `Cc1ccccc1CN1CC=c2ccccc2=N1`, the TGI with SK-MEL-5 melanoma, in the assay on UACC-62 melanoma, with LOX IMVI melanoma, with SK-MEL-28 melanoma, in the assay with A549 NSCLC and in the assay with SK-OV-3 ovarian was > 100 µM throughout. The TGI with SNB-75 CNS, in the assay on TK-10 renal and with SN12C renal was > 100 µM each time.
Turning to `COc1cc2nc(Nc3cccc(F)c3)nc(Nc3cc(C)[nH]n3)c2cc1OC`, the GI50 in the assay on SK-MEL-5 melanoma is 1.44 µM; in the assay with UACC-62 melanoma, 1.85 µM; in the assay with LOX IMVI melanoma it was 1.72 µM; in the assay on SK-MEL-28 melanoma, 1.77 µM; with SK-OV-3 ovarian, 1.86 µM; in the assay with SNB-75 CNS, 1.52 µM. Moreover, the results for the GI50 in the assay on TK-10 renal and in the assay with SN12C renal were 1.82 µM and 1.89 µM, respectively. For the same compound, the TGI in the assay on SK-MEL-5 melanoma came out at 2.84 µM; with UACC-62 melanoma, 3.66 µM; in the assay with LOX IMVI melanoma, 3.11 µM; in the assay on SK-MEL-28 melanoma, 3.2 µM; with SK-OV-3 ovarian, 3.37 µM; with SNB-75 CNS it was 2.95 µM. In addition, the TGI was determined as 3.68 µM in the assay with TK-10 renal and 3.79 µM with SN12C renal.
Turning to `COC(=O)C1=C(CO)C2C=CC1C2` (stereo not drawn), the TGI in the assay with SK-MEL-5 melanoma, in the assay with UACC-62 melanoma, in the assay on LOX IMVI melanoma, with A549 NSCLC, in the assay with SK-OV-3 ovarian and with SNB-75 CNS was > 100 µM throughout. Also, the TGI with HCT-116 colon, in the assay on TK-10 renal and with SN12C renal was > 100 µM each time.
Take `CN(C)CC1(C)CC/C(=C\c2ccccc2)C1=O` (stereo not drawn): the TGI with SK-MEL-5 melanoma, in the assay with UACC-62 melanoma, in the assay on LOX IMVI melanoma, in the assay with SK-MEL-28 melanoma, in the assay with A549 NSCLC and with SNB-75 CNS was > 100 µM in each case. The TGI with HCT-116 colon, in the assay on TK-10 renal and with SN12C renal was > 100 µM throughout.
For `O=C1CCC2(CC1)SCCCS2`, the TGI in the assay on SK-MEL-5 melanoma, with UACC-62 melanoma, in the assay with LOX IMVI melanoma, in the assay on SK-MEL-28 melanoma, in the assay with A549 NSCLC and in the assay with SK-OV-3 ovarian was > 100 µM throughout. The TGI in the assay with SNB-75 CNS, with TK-10 renal and in the assay on SN12C renal was > 100 µM throughout.
Turning to `Cc1cc(Cl)ccc1N=C1NC(=O)C(CC(=O)Nc2ccc(Cl)cc2Cl)S1` (stereo not drawn), the TGI with SK-MEL-5 melanoma, with UACC-62 melanoma, with LOX IMVI melanoma, with SK-MEL-28 melanoma, in the assay with A549 NSCLC and in the assay with SK-OV-3 ovarian was > 100 µM in each case. The TGI with SNB-75 CNS, in the assay with TK-10 renal and in the assay with SN12C renal was > 100 µM each time.
On to `O=C1OC(O)C(Oc2ccc(Cl)cc2)=C1Cl` (stereo not drawn), for which the TGI in the assay on UACC-62 melanoma, in the assay with LOX IMVI melanoma, in the assay with SK-MEL-28 melanoma, in the assay on A549 NSCLC, in the assay with SK-OV-3 ovarian and in the assay with SNB-75 CNS was > 100 µM in each case. Besides, the TGI in the assay with HCT-116 colon, with TK-10 renal and in the assay with SN12C renal was > 100 µM each time.
As for `O=C1C(=O)C(Br)(Br)C(Br)=C1Br`, the TGI was 29.4 µM in the assay with SK-MEL-5 melanoma; 33.6 µM in the assay on UACC-62 melanoma; 31.9 µM in the assay on LOX IMVI melanoma; 29.7 µM in the assay with SK-MEL-28 melanoma; > 100 µM in the assay with A549 NSCLC; > 100 µM with SK-OV-3 ovarian. Also, the TGI in the assay with SNB-75 CNS came out at 27.7 µM; in the assay on TK-10 renal, 39.9 µM; in the assay on SN12C renal it was 51.8 µM.
With `COc1ccc(/C=C2\CCC(C)(CN(C)C)C2=O)cc1` (stereo not drawn), the TGI with SK-MEL-5 melanoma, in the assay with UACC-62 melanoma, in the assay on LOX IMVI melanoma, with SK-MEL-28 melanoma, with A549 NSCLC and in the assay on SNB-75 CNS was > 100 µM in each case. In addition, the TGI with HCT-116 colon, in the assay on TK-10 renal and in the assay on SN12C renal was > 100 µM throughout.
For `CC1=C(C(=O)NCc2ccccc2)C(c2ccccc2[N+](=O)[O-])C(C(=O)NCc2ccccc2)=C(C)N1`, the TGI was 25.9 µM with SK-MEL-5 melanoma; 22.9 µM with UACC-62 melanoma; 21.3 µM with LOX IMVI melanoma; 26 µM with SK-MEL-28 melanoma; 68.1 µM in the assay on A549 NSCLC; 26.6 µM in the assay on SNB-75 CNS. The results for the TGI with HCT-116 colon, in the assay with TK-10 renal and in the assay on SN12C renal were 19.7 µM, 31.4 µM and 27.4 µM, respectively.
As for `CCOC(=O)c1sc(Nc2ccc(Cl)cc2)nc1C`, the GI50 was 1.44 µM in the assay with SK-MEL-5 melanoma; 1.17 µM in the assay on UACC-62 melanoma; 1.49 µM in the assay with LOX IMVI melanoma; 1.96 µM with SK-MEL-28 melanoma; 2.17 µM with A549 NSCLC; 2.44 µM with SK-OV-3 ovarian. In addition, the results for the GI50 with SNB-75 CNS, with TK-10 renal and in the assay on SN12C renal were 1.43 µM, 2.42 µM and 1.75 µM, respectively. Moreover, the TGI came to 2.76 µM with SK-MEL-5 melanoma; 2.71 µM in the assay on UACC-62 melanoma; 2.86 µM in the assay with LOX IMVI melanoma; 4.23 µM with SK-MEL-28 melanoma; 5.45 µM with A549 NSCLC; 6.8 µM in the assay with SK-OV-3 ovarian. Besides, the TGI is 4.24 µM with SNB-75 CNS, 5.08 µM with TK-10 renal and 4.81 µM in the assay with SN12C renal.

The values above are taken from PubChem BioAssay (NCI).
